Measurements reported in patent US11752169B2, “Treatment of pain with polysulfated polysaccharides” (PARADIGM BIOPHARMACEUTICALS LTD., priority 2018, dated 2023).
Entries after “also recorded” stand apart in the source; their conditions may differ.

Legend:
MMP13 = MMP13 immunostaining / confocal microscopy of KOA osteocyte-like cultures; type: cell-based, human; settings: KOA2 cells, rhTNFα + PPS 50 μg/mL (FIG. 21)
Description: FIG. 21. The effect of PPS treatment on basal and TNFα-induced MMP13 expression in human KOA osteocyte-like cultures. Confocal microscopy imaging of immunostaining of KOA2 cells untreated stained with isotype control primary antibody or mouse anti-human anti-MMP13 antibody (top row), or treated with rhTNFα alone or rhTNFα+PPS (50 μg/mL) and stained for MMP13 (green staining). All nuclei are stained with DAPI (blue). A) Isotype IgG control; B) Untreated; anti-MMP13; C) rhTNF-α-treated; anti-MMP13; and D) rhTNFa+PPS50; anti-MMP13.
(§1) Cell seeded in 8-well chamber slides and differentiated for 28 days or freshly digested from bone were either untreated or treated with rhTNFα (1 ng/mL), PPS (50 μg/mL; ‘PPS50’) or PPS50+rhTNFα. Following differentiation, medium was removed and all wells rinsed with PBS (pH 7.4, Gibco) a total of three times. Cells were then fixed with 100 μL of Histochoice (Sigma-Aldrich) tissue fixative for 1 hour at room temperature. After fixation, wells were rinsed twice with distilled H2O and stored at 4° C. until staining. Cells were blocked with 50 μL of blocking buffer (5% v/v normal rabbit serum in 1×PBS) for 20 minutes at room temperature in a humid chamber. Cells were then rinsed with wash buffer (0.1% v/v normal rabbit serum in PBS) three times. […]

NGF = NGF immunostaining / confocal microscopy of osteocytes freshly isolated from human KOA bone; type: cell-based; settings: osteocyte-enriched fractions of KOA bone digests, 24 h, qualitative (FIG. 22)
Description: FIG. 22. NGF expression in isolated human osteocytes. Osteocyte-enriched fractions of sequential human trabecular bone digests were cultured for 24 h either untreated (A), treated with rhTNFα (B), PPS (0.5 μg/mL) (C) or a combination of both (D), and then examined by confocal microscopy for NGF immunoreactivity. Control cells were also immunostained using an isotype-matched negative control primary antibody (E). Images are representative of data obtained from two individual donors. Scale bars in each image represent 100 μm.
as §1

proNGF = proNGF ELISA of culture supernatants of osteocyte-like cultures treated with rhTNF and PPS; type: cell-based, human
From the text: In order to maximise the clinical relevance of the findings from this study, the effects of PPS were to be tested on osteocyte-like cultures derived by differentiation in vitro for a period of 28 days from cells isolated from the subchondral bone of the proximal tibia of three patients with advanced knee OA who underwent total knee arthroplasty (TKA) surgery (KOA: Group 1). As a comparator group, cells isolated from the proximal femur of three patients who underwent total hip arthroplasty (THA) for neck of femur fracture (NOF: Group 2), were similarly differentiated and tested. […]
Cryopreserved cells from each donor (all at passage 0 or 1) were thawed and cultured for 10d in T75 cm^2 tissue culture flasks. Once confluent, cells were removed by collagenase/dispase digestion, washed by centrifugation, counted and adjusted to 5×10^5 cells/mL. […]
To examine further the effects of PPS on NGF expression, osteocyte-like cultures derived from three KOA and three NOF donor osteoblasts were treated after 3 days pre-treatment with differing concentrations of PPS, with rhTNFα in the absence or presence of the pre-treatment concentration of PPS. […] Therefore, in this study proNGF levels were also measured in the treated supernatants, as described in Materials and Methods.

## Sodium Pentosan Polysulfate [PPS]
MMP13
  inhibition of rhTNFα-induced MMP13 at the protein level (immunostaining): confirmed
NGF; PPS 0.5 μg/mL + rhTNFα
  NGF expression (immunostaining), combination of rhTNF-α and PPS: downregulated; also recorded: qualitatively less staining
NGF; PPS 0.5 μg/mL
  NGF expression (immunostaining), PPS alone vs control: qualitatively greater
proNGF; KOA and NOF cultures, rhTNFα 1 ng/mL 48 h after 3 days PPS pre-treatment, all PPS concentrations tested
  effect of rhTNF on proNGF secretion: strongly reversed
proNGF; all donors' cells (KOA and NOF), all PPS concentrations tested (1, 5, 50 μg/mL)
  basal proNGF secretion: strongly suppressed
